Data set [1] can be described thus: Particle size and polydispersity index (PDI) of lipid nanoparticles by dynamic light scattering. Format: physicochemical. Conditions: LNP formulation prepared from the cationic lipid, 25° C. On the procedure:
The particle size and polydispersity index (PDI) were determined by dynamic light scattering using Malvern laser particle size analyzer.
10 μL of the liposome solution was weighed, diluted to 1 mL with RNase-free deionized water, and added to the sample pool. Each sample was measured in triplicate. The measurement conditions were: […] scattering angle, and 25° C.

Data set [2] relates to 293T cells. In words: Fluorescent detection of Fluc-mRNA (cell transfection efficiency of LNP formulations). Conditions: for Relative light unit (RLU): LNP formulation of Fluc-mRNA, 96-well plate, 24 hours; for Multiples (YK-305): RLU of YK-305 / RLU of the lipid of the line; for Multiples (YK-310): RLU of YK-310 / RLU of the lipid of the line; for Multiples (YK-312): RLU of YK-312 / RLU of the lipid of the line; for Ratio relative to SM-102: RLU of the lipid / RLU of SM-102, times that of SM-102; for Multiples (YK-318): RLU of YK-318 / RLU of the lipid of the line; for Multiples (YK-318) / Multiples (YK-319): Tables 5, 7, 11; for Multiples (YK-319): RLU of YK-319 / RLU of the lipid of the line. The class given is cell-based. On the procedure: (§1) Cell recovery and passage: 293T cells were recovered, cultured in a culture dish, and passaged to the required number of cells.
(§2) Seeding plate: The cells in the culture dish were digested and counted. Cells were spread in a 96-well plate at 10,000 cells per well and in a 12-well plate at 150,000 cells per well. Cells were cultured overnight until the cells adhered to the wall.
(§3) Cell recovery and passage: the method was the same as in Example 3.
(§4) Seeding plate: the method was the same as in Example 3.
An LNP formulation containing […] of Fluc-mRNA (the carrier components of the LNP formulation were cationic lipid, neutral lipid, structured lipid and polymer-conjugated lipid with a molar ratio of 49:10:39.5:1.5, wherein the cationic lipid was listed in Table 1) was added to the cell culture medium of a 96-well plate, and further incubated for 24 hours. The corresponding reagent was added according to the instructions of the […] Luciferase Assay Kit, and the fluorescence expression intensity of each well was detected by an IVIS fluorescence detection system. This test verified the transfection efficiencies of LNP formulations in cells, see Tables 4-7 for specific test results.

In data set [3] the test system is 293T cells. In words: Cell survival rate determination (CCK-8). Conditions: LNP formulation of Fluc-mRNA, 24 hours, CCK-8. Format: cell-based. Here is the method:
as §1, §2, §3, §4
An LNP formulation containing […] of Fluc-mRNA (the carrier components of the LNP formulation were cationic lipid, neutral lipid, structured lipid and polymer-conjugated lipid with a molar ratio of 49:10:39.5:1.5, wherein the cationic lipid was listed in Table 1) and the formulation of Lipofectamine 3000 were added to the cell culture medium of a 96-well plate, and further cultivated for 24 hours. 10 μL of CCK-8 solution was then added to each well, and the culture plate was incubated in an incubator for 1 hour. The absorbance at 450 nm was measured by a microplate reader.
Cell survival rate can represent the toxicity of cationic lipids to cells. The higher the cell survival rate, the lower the toxicity to cells.

The values below come from patent publication US20260007613A1, “LONG-ACTING LOW-TOXICITY NOVEL CATIONIC LIPID COMPOUNDS AND COMPOSITION THEREOF” (BEIJING YOUCAREKECHUANG PHARMACEUTICAL TECHNOLOGY CO., LTD., priority 2023, published 2026).

For the compound `CCCCCCCCC(CCCCCCCC)OC(=O)CCCCCCCN(CCCCCCCC(=O)OC(CCCCCCCC)CCCCCCCC)C[C@H](O)CN(CC)CCO` [YK-314], in data set [1], the “PDI (%)” value is given as 24.6% and the “Particle size (nm)” value amounted to 235 nm. Besides, in the data set with 293T cells [2], the “Relative light unit (RLU)” value came out at 547434 RLU, the “Multiples (YK-305)” value stood at 50.07, the “Multiples (YK-310)” value turned out to be 47.12 and the “Multiples (YK-312)” value is reported as 36.81. The “Ratio relative to SM-102” value in the data set with 293T cells [2] is 0.34. In addition, in the data set on 293T cells [3], the “Cell survival rate (%)” value is listed as 67.88%.
Regarding `CCCCCCCCCCCOC(=O)CCCCCN(CCCC(=O)OCCCC(CCCCCCCCCC)CCCCCCCCCC)C[C@H](O)CN(C)CCO` [YK-303, (R)-undecyl-6-(4-(4-decyltetradecyloxy)-4-oxobutyl)((2-hydroxy-3-((2-hydroxyethyl)(methyl)amino)propyl)amino)hexanoate], in the data set with 293T cells [2], the “Relative light unit (RLU)” value was determined as 626314 RLU, the “Multiples (YK-305)” value is 43.76, the “Multiples (YK-310)” value is given as 41.19 and the “Multiples (YK-312)” value was 32.17. In addition, in the data set on 293T cells [2], the “Multiples (YK-318)” value is listed as 17.87 and the “Multiples (YK-319)” value came to 39.07. Besides, in the data set on 293T cells [3], the “Cell survival rate (%)” value worked out at 82.18%. Also, the “Cell survival rate (%)” value in the data set with 293T cells [3] (listed as YK 303) was found to be 63.32%.
Regarding `CCCCCCC(CCCCCC)CCOC(=O)CCCCCN(CCCCCC(=O)OCCC(CCCCCC)CCCCCC)C[C@H](O)CN(C)CCO` [YK-306, (R)-bis(3-hexylnonyl)-6,6′-((2-hydroxy-3-((2-hydroxyethyl)(methyl)amino)propyl)azanediyl)dihexanoate], in data set [1], the “PDI (%)” value came out at 13.6% and the “Particle size (nm)” value turned out to be 228 nm. Further, in the data set with 293T cells [2], the “Relative light unit (RLU)” value was 2197174 RLU, the “Multiples (YK-305)” value was determined as 12.47, the “Multiples (YK-310)” value is reported as 11.14 and the “Multiples (YK-312)” value was 9.17. Besides, in the data set on 293T cells [2], the “Multiples (YK-318)” value was 5.09 and the “Multiples (YK-319)” value worked out at 11.14. Also, in the data set on 293T cells [3], the “Cell survival rate (%)” value was 42.19%.
Turning to `CCCCCCCCC(CCCCCCCC)OC(=O)CCCCCCCN(CCCCCCCC(=O)OC(CCCCCCCC)CCCCCCCC)C[C@H](O)CN(CCO)CCO` [YK-320, (S)-Bis(heptadecan-9-yl)-8,8′-((3-(bis(2-hydroxyethyl)amino)-2-hydroxypropyl)azanediyl)dicaprylate], in data set [1], the “PDI (%)” value was determined as 19.6% and the “Particle size (nm)” value is recorded as 212 nm. Also, in the data set on 293T cells [2], the “Relative light unit (RLU)” value was 2702966 RLU, the “Multiples (YK-305)” value is 10.14, the “Multiples (YK-310)” value came to 9.54 and the “Multiples (YK-312)” value is 7.45. Further, in the data set on 293T cells [2], the “Multiples (YK-318)” value is 4.14, the “Multiples (YK-319)” value was determined as 9.05 and the “Ratio relative to SM-102” value was 1.69. For the same compound, in the data set with 293T cells [3], the “Cell survival rate (%)” value is 71.07%.
`CCCCCCC(CCCCCC)CCOC(=O)CCCCCN(CCCCCC(=O)OCCC(CCCCCC)CCCCCC)C[C@H](O)CN(CC)CCO` [YK-311]: in data set [1], the “PDI (%)” value came out at 31.1% and the “Particle size (nm)” value was 209 nm. In the data set on 293T cells [2], the “Relative light unit (RLU)” value turned out to be 1963636 RLU, the “Multiples (YK-305)” value is listed as 13.96, the “Multiples (YK-310)” value came out at 13.14 and the “Multiples (YK-312)” value worked out at 10.26. Further, the “Ratio relative to SM-102” value with 293T cells [2] came to 1.22. Moreover, the “Cell survival rate (%)” value with 293T cells [3] came out at 70.06%.
Consider `CCCCCCCCC(CCCCCCCC)COC(=O)CCCCCN(CCCCCC(=O)OCC(CCCCCCCC)CCCCCCCC)C[C@H](O)CN(CCO)CCO` [YK-316, (S)-bis(2-octyldecyl)-6,6′-(((3-(bis(2-hydroxyethyl)amino)-2-hydroxypropyl)azanediyl))dihexanoate], for which, in data set [1], the “PDI (%)” value is 17.5% and the “Particle size (nm)” value worked out at 188 nm. For the same compound, in the data set on 293T cells [2], the “Relative light unit (RLU)” value was 4810210 RLU, the “Multiples (YK-305)” value is recorded as 5.70, the “Multiples (YK-310)” value stood at 5.36 and the “Multiples (YK-312)” value was 4.19. Besides, in the data set with 293T cells [2], the “Multiples (YK-318)” value amounted to 2.33, the “Multiples (YK-319)” value was determined as 5.09 and the “Ratio relative to SM-102” value came to 3.00. In the data set with 293T cells [3], the “Cell survival rate (%)” value came to 70.53%.
Turning to `CCCCCCCCCCCOC(=O)CCCCCN(CCCCCC(=O)OCCCCCCCCCCC)C[C@H](O)CN(C)CCO` [YK-304, (R)-bis(undecyl)-6,6′-((2-hydroxy-3-((2-hydroxyethyl)(methyl)amino)propyl)azanediyl)dihexanoate], in data set [1], the “PDI (%)” value is recorded as 19.8% and the “Particle size (nm)” value was determined as 149 nm. In addition, in the data set on 293T cells [2], the “Relative light unit (RLU)” value is given as 20686 RLU, the “Multiples (YK-305)” value was 1324.99, the “Multiples (YK-310)” value amounted to 1247.08 and the “Multiples (YK-312)” value is listed as 974.01. Also, in the data set with 293T cells [2], the “Multiples (YK-318)” value is reported as 540.95 and the “Multiples (YK-319)” value amounted to 1182.82. In the data set with 293T cells [3], the “Cell survival rate (%)” value was 34.16%.
`CCCCCCCCCCC(CCCCCCCCCC)CCCOC(=O)CCCN(CCCC(=O)OCCCC(CCCCCCCCCC)CCCCCCCCCC)C[C@H](O)CN(C)CCO` [YK-307]: in data set [1], the “PDI (%)” value came out at 32.2% and the “Particle size (nm)” value is given as 210 nm. Further, in the data set with 293T cells [2], the “Relative light unit (RLU)” value was determined as 4557420 RLU, the “Multiples (YK-305)” value was found to be 6.01, the “Multiples (YK-310)” value stood at 5.66 and the “Multiples (YK-312)” value is 4.42. In addition, in the data set on 293T cells [2], the “Multiples (YK-318)” value is recorded as 2.46 and the “Multiples (YK-319)” value was found to be 5.37. The “Cell survival rate (%)” value in the data set on 293T cells [3] worked out at 61.14%.
Turning to `CCCCCCCCCCC(CCCCCCCCCC)CCCOC(=O)CCCN(CCCC(=O)OCCCC(CCCCCCCCCC)CCCCCCCCCC)C[C@H](O)CN(CC)CCO` [YK-315], in data set [1], the “PDI (%)” value is 34.9% and the “Particle size (nm)” value worked out at 181 nm. In addition, in the data set with 293T cells [2], the “Relative light unit (RLU)” value is 1587188 RLU, the “Multiples (YK-305)” value was 17.27, the “Multiples (YK-310)” value turned out to be 16.25 and the “Multiples (YK-312)” value is 12.69. Also, in the data set on 293T cells [2], the “Ratio relative to SM-102” value is given as 0.99. Further, the “Cell survival rate (%)” value in the data set with 293T cells [3] was 71.28%.
As for `CCCCCCCCCCOC(=O)CCCN(CCCCCC(=O)OCC(CCCCCCCC)CCCCCCCC)C[C@H](O)CN(CC)CCO` [YK-308], in data set [1], the “PDI (%)” value stood at 13.4% and the “Particle size (nm)” value is 211 nm. Also, in the data set with 293T cells [2], the “Relative light unit (RLU)” value came out at 5036582 RLU, the “Multiples (YK-305)” value was 5.44, the “Multiples (YK-310)” value was determined as 5.12 and the “Multiples (YK-312)” value came out at 4.00. Further, in the data set with 293T cells [2], the “Ratio relative to SM-102” value is 3.14. Besides, the “Cell survival rate (%)” value in the data set with 293T cells [3] came out at 70.99%.
For the compound `CCCCCCC(CCCCCC)CCOC(=O)CCCCCN(CCCCCC(=O)OCCC(CCCCCC)CCCCCC)C[C@H](O)CN(CCO)CCO` [YK-317, (S)-Bis(3-hexylnonyl)-6,6′-((3-(bis(2-hydroxyethyl)amino)-2-hydroxypropyl)azanediyl)dihexanoate], in data set [1], the “PDI (%)” value is listed as 16.4% and the “Particle size (nm)” value is 255 nm. Besides, in the data set with 293T cells [2], the “Relative light unit (RLU)” value is on record as 3605054 RLU, the “Multiples (YK-305)” value turned out to be 7.60, the “Multiples (YK-310)” value was 7.16 and the “Multiples (YK-312)” value was determined as 5.59. Besides, in the data set on 293T cells [2], the “Multiples (YK-318)” value is given as 3.10, the “Multiples (YK-319)” value came out at 6.79 and the “Ratio relative to SM-102” value is 2.25. Moreover, the “Cell survival rate (%)” value with 293T cells [3] was found to be 59.18%.
Consider `CCCCCCCCCCOC(=O)CCCN(CCCCCC(=O)OCC(CCCCCCCC)CCCCCCCC)C[C@H](O)CN(C)CCO` [YK-301, (R)-2-octyldecyl-6-((4-(decyloxy)-4-oxobutyl)((2-hydroxy-3-(2-hydroxyethyl)(methyl)amino)propyl)amino)hexanoate], for which, in data set [1], the “PDI (%)” value is on record as 7.0% and the “Particle size (nm)” value stood at 192 nm. Moreover, in the data set on 293T cells [2], the “Relative light unit (RLU)” value was 842452 RLU, the “Multiples (YK-305)” value is listed as 32.53, the “Multiples (YK-310)” value came to 30.62 and the “Multiples (YK-312)” value turned out to be 23.92. Further, in the data set with 293T cells [2], the “Multiples (YK-318)” value was determined as 13.28 and the “Multiples (YK-319)” value came out at 29.04. Also, in the data set with 293T cells [3], the “Cell survival rate (%)” value was determined as 52.96%.
